Test results from patent US6706663B2, “Herbicidal 3-heterocyclic substituted benzisothiazole and benzisoxazole compounds” (Wyeth, priority 2000, dated 2004).

Tests used:
SETVI (Setaria viridis) [1] = experiment: Preemergence herbicidal evaluation; assay type: in vivo, (L.) Beau; conditions: preemergence, rated 4-5 weeks after treatment
In short: (§1)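 Scores (0–9) reflect visual comparison with control plants for stand, vigor, malformation, size and chlorosis. Seeds in potting soil received a post-planting spray of compound in aqueous acetone and grew in a greenhouse until assessment 4–5 weeks later.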

[2] = system: ECHCG (Echinochloa crus-galli); experiment: Preemergence herbicidal evaluation; assay type: in vivo, (L.) Beau; conditions: preemergence, rated 4-5 weeks after treatment
In short: as §1

GALAP (Galium aparine) [3] = experiment: Preemergence herbicidal evaluation; assay type: in vivo; conditions: preemergence, rated 4-5 weeks after treatment
In short: as §1

[4] = system: CHEAL (Chenopodium album); experiment: Preemergence herbicidal evaluation; assay type: in vivo, L.; conditions: preemergence, rated 4-5 weeks after treatment
In short: as §1

[5] = system: AMBEL (Ambrosia artemisifolia); experiment: Preemergence herbicidal evaluation; assay type: in vivo, L.; conditions: preemergence, rated 4-5 weeks after treatment
In short: as §1

[6] = system: CASOB (Cassia obtusifolia); experiment: Preemergence herbicidal evaluation; assay type: in vivo, L.; conditions: preemergence, rated 4-5 weeks after treatment
In short: as §1

ORYSAT (Rice, Tebonnet) [7] = experiment: Postemergence herbicidal evaluation; assay type: in vivo, Oryza sativa, (L.) Tebonnet
In short: (§2)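 Seedlings grown about two weeks in flats, sprayed, then kept under standard greenhouse care. Rated visually 4–5 weeks after treatment on a 0–9 scale (stand, vigour, malformation, size, chlorosis, overall appearance) relative to untreated control; repeat tests averaged.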

[8] = system: SAGPY (Sagittaria pygmaea); experiment: Flooded paddy, preemergence weed control; assay type: in vivo, L.; conditions: rated 3-4 weeks after treatment, 0-9 rating scale
In short: (§3)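 Silt loam, sowing depth ≤0.5 cm; permanent flood 1.5–3 cm above soil; greenhouse culture after treatment. Readout: 0-9 visual scale (stand, vigor, malformation, size, chlorosis, appearance) vs control.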

[9] = system: CHEAL (Chenopodium album); experiment: Postemergence herbicidal evaluation; assay type: in vivo, L.
In short: as §2

[10] = system: AMBEL (Ambrosia artemisifolia); experiment: Postemergence herbicidal evaluation; assay type: in vivo, L.
In short: as §2

[11] = system: CASOB (Cassia obtusifolia); experiment: Postemergence herbicidal evaluation; assay type: in vivo, L.
In short: as §2

[12] = system: IPOHE (Ipomoea hederacea); experiment: Postemergence herbicidal evaluation; assay type: in vivo, (L.) Jacq.
In short: as §2

[13] = system: MOOVA (Monochoria vaginalis); experiment: Flooded paddy, preemergence weed control; assay type: in vivo, Presl.; conditions: rated 3-4 weeks after treatment, 0-9 rating scale
In short: as §3

[14] = system: CYPSE (Cyperus serotinus); experiment: Flooded paddy, preemergence weed control; assay type: in vivo, Rottb.; conditions: rated 3-4 weeks after treatment, 0-9 rating scale
In short: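 Seeds or propagules were planted 0.5 cm deep in silt loam and flooded to 1.5–3 cm. Compounds in 50/50 v/v aqueous/acetone were pipetted into the flood water at about 0.0080 to 0.1250 kg/ha. After 3–4 weeks in the greenhouse, effect was rated visually on a 0–9 scale versus untreated control.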

GALAP (Galium aparine) [15] = experiment: Postemergence herbicidal evaluation; assay type: in vivo
In short: as §2

SETVI (Setaria viridis) [16] = experiment: Postemergence herbicidal evaluation; assay type: in vivo, (L.) Beau
In short: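 Ratings use a 0-9 visual scale covering stand, vigor, malformation, size, chlorosis and appearance versus a control, scored 4-5 weeks post-spray. Roughly two-week-old seedlings received about 0.0040-1.000 kg/ha active, applied in 50/50 acetone/water with 0.5% TWEEN 20. Multiple tests per compound were averaged.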

[17] = system: ABUTH (Abutilon theophrasti); experiment: Postemergence herbicidal evaluation; assay type: in vivo, Medic.
In short: as §2

ORYSAT (Rice, Tebonnet) [18] = experiment: Preemergence herbicidal evaluation; assay type: in vivo, Oryza sativa, (L.) Tebonnet; conditions: preemergence, rated 4-5 weeks after treatment
CYPIR (Cyperus iria) = experiment: Flooded paddy, preemergence weed control; assay type: in vivo; conditions: rated 3-4 weeks after treatment, 0-9 rating scale
In short: as §3

[19] = system: TRZAWR (Wheat, Winter, cv Riband); experiment: Postemergence herbicidal evaluation; assay type: in vivo, Triticum aestivum
In short: as §2

For `COC(=O)COc1ccsc1-c1nsc2ccc(-n3c(=O)cc(C(F)(F)F)n(C)c3=O)cc12` [Compound 22, Methyl [(2-[5-[3,6-dihydro-3-methyl-2,6-dioxo-4-(trifluoromethyl)-1(2H)-pyrimidinyl]-1,2-benzisothiazol-3-yl]-3-thienyl]oxy]acetate], the “SETVI preemergence herbicidal rating” value (SETVI (Setaria viridis) [1]; Rate 0.0620 kg/ha) was 0.0, the “SETVI preemergence herbicidal rating” value (SETVI (Setaria viridis) [1]; Rate 0.1250 kg/ha) was 1.0 and the “SETVI preemergence herbicidal rating” value (SETVI (Setaria viridis) [1]; Rate 0.2500 kg/ha) was 3.0. The “ECHCG preemergence herbicidal rating” value ([2]; Rate 0.0620 kg/ha) was 0.0, the “ECHCG preemergence herbicidal rating” value ([2]; Rate 0.1250 kg/ha) was 0.0 and the “ECHCG preemergence herbicidal rating” value ([2]; Rate 0.2500 kg/ha) was 1.0. The “GALAP preemergence herbicidal rating” value (GALAP (Galium aparine) [3]; Rate 0.0620 kg/ha) was 0.0, the “GALAP preemergence herbicidal rating” value (GALAP (Galium aparine) [3]; Rate 0.1250 kg/ha) was 0.0 and the “GALAP preemergence herbicidal rating” value (GALAP (Galium aparine) [3]; Rate 0.2500 kg/ha) was 1.0. For the same compound, the “CHEAL preemergence herbicidal rating” value ([4]; Rate 0.0620 kg/ha) was 0.0, the “CHEAL preemergence herbicidal rating” value ([4]; Rate 0.1250 kg/ha) was 3.0 and the “CHEAL preemergence herbicidal rating” value ([4]; Rate 0.2500 kg/ha) was 9.0. For the same compound, the “AMBEL preemergence herbicidal rating” value ([5]; Rate 0.0620 kg/ha) was 0.0, the “AMBEL preemergence herbicidal rating” value ([5]; Rate 0.1250 kg/ha) was 0.0 and the “AMBEL preemergence herbicidal rating” value ([5]; Rate 0.2500 kg/ha) was 2.0. For the same compound, the “CASOB preemergence herbicidal rating” value ([6]; Rate 0.0620 kg/ha) was 0.0, the “CASOB preemergence herbicidal rating” value ([6]; Rate 0.1250 kg/ha) was 0.0 and the “CASOB preemergence herbicidal rating” value ([6]; Rate 0.2500 kg/ha) was 1.0. The “Postemergence herbicidal rating, ORYSAT” value (ORYSAT (Rice, Tebonnet) [7]; rate 0.0320 kg/ha) was 3.0, the “Postemergence herbicidal rating, ORYSAT” value (ORYSAT (Rice, Tebonnet) [7]; rate 0.0620 kg/ha) was 3.5 and the “Postemergence herbicidal rating, ORYSAT” value (ORYSAT (Rice, Tebonnet) [7]; rate 0.1250 kg/ha) was 4.5. The “herbicidal rating, SAGPY” value ([8]; rate 0.0080 kg/ha) was 0.0, the “herbicidal rating, SAGPY” value ([8]; rate 0.0320 kg/ha) was 0.0 and the “herbicidal rating, SAGPY” value ([8]; rate 0.1250 kg/ha) was 0.0. The “Postemergence herbicidal rating, CHEAL” value ([9]; rate 0.0320 kg/ha) was 1.0, the “Postemergence herbicidal rating, CHEAL” value ([9]; rate 0.0620 kg/ha) was 4.0 and the “Postemergence herbicidal rating, CHEAL” value ([9]; rate 0.1250 kg/ha) was 4.0. The “Postemergence herbicidal rating, AMBEL” value ([10]; rate 0.0320 kg/ha) was 2.0, the “Postemergence herbicidal rating, AMBEL” value ([10]; rate 0.0620 kg/ha) was 4.0 and the “Postemergence herbicidal rating, AMBEL” value ([10]; rate 0.1250 kg/ha) was 6.0. For the same compound, the “Postemergence herbicidal rating, CASOB” value ([11]; rate 0.0320 kg/ha) was 0.0, the “Postemergence herbicidal rating, CASOB” value ([11]; rate 0.0620 kg/ha) was 0.0 and the “Postemergence herbicidal rating, CASOB” value ([11]; rate 0.1250 kg/ha) was 1.0. The “Postemergence herbicidal rating, IPOHE” value ([12]; rate 0.0320 kg/ha) was 4.0, the “Postemergence herbicidal rating, IPOHE” value ([12]; rate 0.0620 kg/ha) was 4.0 and the “Postemergence herbicidal rating, IPOHE” value ([12]; rate 0.1250 kg/ha) was 6.0. The “herbicidal rating, MOOVA” value ([13]; rate 0.0080 kg/ha) was 0.0, the “herbicidal rating, MOOVA” value ([13]; rate 0.0320 kg/ha) was 4.5 and the “herbicidal rating, MOOVA” value ([13]; rate 0.1250 kg/ha) was 4.5. The “herbicidal rating, CYPSE” value ([14]; rate 0.0320 kg/ha) was 0.0, the “herbicidal rating, CYPSE” value ([14]; rate 0.1250 kg/ha) was 0.0 and the “Postemergence herbicidal rating, GALAP” value (GALAP (Galium aparine) [15]; rate 0.0320 kg/ha) was 0.0. For the same compound, the “Postemergence herbicidal rating, GALAP” value (GALAP (Galium aparine) [15]; rate 0.0620 kg/ha) was 0.0, the “Postemergence herbicidal rating, GALAP” value (GALAP (Galium aparine) [15]; rate 0.1250 kg/ha) was 1.0 and the “Postemergence herbicidal rating, SETVI” value (SETVI (Setaria viridis) [16]; rate 0.0320 kg/ha) was 3.0. For the same compound, the “Postemergence herbicidal rating, SETVI” value (SETVI (Setaria viridis) [16]; rate 0.0620 kg/ha) was 2.0, the “Postemergence herbicidal rating, SETVI” value (SETVI (Setaria viridis) [16]; rate 0.1250 kg/ha) was 9.0 and the “Postemergence herbicidal rating, ABUTH” value ([17]; rate 0.0320 kg/ha) was 5.0. The “Postemergence herbicidal rating, ABUTH” value ([17]; rate 0.0620 kg/ha) was 4.0, the “Postemergence herbicidal rating, ABUTH” value ([17]; rate 0.1250 kg/ha) was 6.0 and the “ORYSAT preemergence herbicidal rating” value (ORYSAT (Rice, Tebonnet) [18]; Rate 0.0620 kg/ha) was 0.0. For the same compound, the “ORYSAT preemergence herbicidal rating” value (ORYSAT (Rice, Tebonnet) [18]; Rate 0.1250 kg/ha) was 0.0, the “ORYSAT preemergence herbicidal rating” value (ORYSAT (Rice, Tebonnet) [18]; Rate 0.2500 kg/ha) was 0.0 and the “herbicidal rating, CYPIR” value (CYPIR (Cyperus iria); rate 0.0080 kg/ha) was 0.0. For the same compound, the “herbicidal rating, CYPIR” value (CYPIR (Cyperus iria); rate 0.0320 kg/ha) was 2.5, the “herbicidal rating, CYPIR” value (CYPIR (Cyperus iria); rate 0.1250 kg/ha) was 3.0 and the “Postemergence herbicidal rating, TRZAWR” value ([19]; rate 0.0320 kg/ha) was 2.5. The “Postemergence herbicidal rating, TRZAWR” value ([19]; rate 0.0620 kg/ha) was 3.5 and the “Postemergence herbicidal rating, TRZAWR” value ([19]; rate 0.1250 kg/ha) was 4.5.
